Reference: US20100260737A1, “COMBINATION BETWEEN AN ISOTHIOCYANATE AND LEVODOPA FOR PARKINSON'S DISEASE TREATMENT” (priority 2007, published 2010)

Assays:
SH-SY5Y cells [1] = experiment: H2O2-induced neuronal apoptosis after pre-treatment; format: cell-based; conditions: for toxic effects in SH-SY5Y cells: SUL 0.63 μM, L-DOPA 25 μM
Experimental: It was also evaluated whether the combination could have synergistic effects against neuronal apoptosis induced by H2O2, an oxidant agent in the CNS. In particular, apoptosis is measured 15 h later than 3 h treatment with H2O2 (300 μM).

[2] = preliminary phase I study (Shapiro et al. 2006); cited from earlier work
neurons = conditions: prolonged SUL treatment, in vitro; cited from earlier work
SH-SY5Y cells [3] = experiment: L-DOPA-induced neurotoxicity, pulse/chase treatment, Annexin-V/propidium iodide double staining

SMILES: C[S+]([O-])CCCCN=C=S (stereo not drawn) [SUL, 4-(methylsulfinyl)butyl isothiocyanate]
- toxic effects in SH-SY5Y cells (SH-SY5Y cells [1]): did not show any toxic effects
- toxicity in humans [2]: absence of toxicity
- effect against 1 methyl-4-phenyl-1,2,3,6-tetrahydropyridine (neurons): does not show any effect
- protection of neurons against 6-hydroxydopamine (neurons): protects neurons
- protection of neurons against H2O2 damage (neurons): protects neurons
- L-DOPA-induced apoptosis, post-treatment (SH-SY5Y cells [3]; SUL 2.5 μM added after L-DOPA (400 μM) treatment, FIG. 3): significant decrease of apoptosis
- L-DOPA-induced apoptosis, co-treatment (SH-SY5Y cells [3]; SUL 0.63-2.5 μM co-treated with L-DOPA 400 μM, FIG. 2): dose-dependent inhibitory effect

SMILES: N[C@@H](Cc1ccc(O)c(O)c1)C(=O)O [L-DOPA, 3,4-dihydroxyphenylalanine]
- toxic effects in SH-SY5Y cells (SH-SY5Y cells [1]): did not show any toxic effects
- H2O2-induced apoptosis after L-DOPA pre-treatment (SH-SY5Y cells [1]; pre-treatment 24 h, L-DOPA 25-100 μM tested, effect at more than 50 μM, H2O2 300 μM 3 h, read 15 h later, FIG. 4): significantly decreased H2O2-induced apoptosis
